Data: patent US20260167619A2, “INDOLINE COMPOUNDS AND DERIVATIVES AS EGFR INHIBITORS” (BeOne Medicines I GmbH, priority 2020, published 2026)

Experiments:
[1] = molecular target: EGFR(Dell9_T790M_C797S) (aa 669-1210, in house) (Homo sapiens, UniProt P00533, T790M/C797S, form not given); test: Biochemical EGFR inhibition assay (TR-FRET), Del19/T790M/C797S mutant; settings: ATP at Km, 15 min pre-incubation, 60 min reaction; read-out: Del_TM_CS (Km ATP) IC50
Procedure: (§1) Compounds were tested for inhibition of kinase activity against EGFR (aa668-1210, Invitrogen), EGFR(L858R_T790M_C797S) (aa695-end, Invitrogen) and EGFR(Dell9_T790M_C797S) (aa 669-1210, in house) in assays based on time-resolved fluorescence-resonance energy transfer (TR-FRET) methodology. Recombinant EGFR, EGFR(L858R_T790M_C797S) or EGFR(Dell9_T790M_C797S) was pre-incubated with the compounds at room temperature for 15 minutes in an assay buffer containing 50 mM HEPES pH7.5, 10 mM MgCl2, 2 mM DTT, 1 mM EGTA, 0.1% BSA, 0.01% Tween-20. The reactions were initiated by the addition of ATP (at the concentration of ATP Km) and substrate Biotin-Poly GT. After reaction at room temperature for 60 minutes, stop/detection solution was added. The stop/detection solution contained Eu^3+ cryptate-conjugated mouse monoclonal antibody (PT66) anti-phosphotyrosine and XL665-conjugated streptavidin in buffer containing 50 mM HEPES pH7.0, 800 mM KF, 20 mM EDTA, and 0.1% BSA. Plates were sealed and incubated at room temperature for 1 hour, and the TR-FRET signals (ratio of fluorescence emission at 665 nm over emission at 620 nm with excitation at 337 nm wavelength) were recorded on a PHERAstar FS plate reader (BMG Labtech). The residual enzyme activity in presence of increasing concentrations of compounds was calculated based on the ratio of fluorescence at 665 nm to that at 620 nm. The IC50 for each compound was derived from fitting the data to the four-parameter logistic equation by Dotmatics or Graphpad Prism software.
(§2) These biochemical EGFR enzyme form compound dose-response assays quantify the kinase activity via phosphorylation of a tagged poly-GT substrate. The results of the assay are provided as IC50 values.

[2] = molecular target: T1, EGFR(L858R_T790M_C797S) (aa695-end, Invitrogen) (Homo sapiens, UniProt P00533, C797S/L858R/T790M); test: Biochemical EGFR inhibition assay (TR-FRET), L858R/T790M/C797S mutant; settings: ATP at Km, 15 min pre-incubation, 60 min reaction; read-out: LR_TM_CS (Km ATP) IC50
T1 construct: purchased Invitrogen
T1 sequence (P00533 695-1210 T790M/C797S/L858R): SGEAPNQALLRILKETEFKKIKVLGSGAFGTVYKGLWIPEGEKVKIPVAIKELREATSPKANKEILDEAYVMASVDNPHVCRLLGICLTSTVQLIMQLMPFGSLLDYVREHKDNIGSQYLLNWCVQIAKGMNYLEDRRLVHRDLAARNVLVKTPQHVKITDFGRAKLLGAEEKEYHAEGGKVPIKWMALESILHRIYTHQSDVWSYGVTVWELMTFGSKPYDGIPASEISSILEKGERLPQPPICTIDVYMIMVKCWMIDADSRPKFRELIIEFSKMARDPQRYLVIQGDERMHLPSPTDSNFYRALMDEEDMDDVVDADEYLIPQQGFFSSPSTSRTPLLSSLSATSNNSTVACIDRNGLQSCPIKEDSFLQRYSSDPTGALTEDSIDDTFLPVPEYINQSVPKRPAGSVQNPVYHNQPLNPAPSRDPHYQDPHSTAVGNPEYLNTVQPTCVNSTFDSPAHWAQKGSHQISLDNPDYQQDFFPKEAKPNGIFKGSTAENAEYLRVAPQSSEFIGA
Procedure: as §1, §2

[3] = molecular target: T2, EGFR (aa668-1210, Invitrogen) (Homo sapiens, UniProt P00533); test: Biochemical EGFR inhibition assay (TR-FRET), wild-type EGFR; settings: ATP at Km, 15 min pre-incubation, 60 min reaction; read-out: WT (Km ATP) IC50
T2 construct: EGFR (aa668-1210, Invitrogen); purchased Invitrogen
T2 sequence (P00533 668-1210): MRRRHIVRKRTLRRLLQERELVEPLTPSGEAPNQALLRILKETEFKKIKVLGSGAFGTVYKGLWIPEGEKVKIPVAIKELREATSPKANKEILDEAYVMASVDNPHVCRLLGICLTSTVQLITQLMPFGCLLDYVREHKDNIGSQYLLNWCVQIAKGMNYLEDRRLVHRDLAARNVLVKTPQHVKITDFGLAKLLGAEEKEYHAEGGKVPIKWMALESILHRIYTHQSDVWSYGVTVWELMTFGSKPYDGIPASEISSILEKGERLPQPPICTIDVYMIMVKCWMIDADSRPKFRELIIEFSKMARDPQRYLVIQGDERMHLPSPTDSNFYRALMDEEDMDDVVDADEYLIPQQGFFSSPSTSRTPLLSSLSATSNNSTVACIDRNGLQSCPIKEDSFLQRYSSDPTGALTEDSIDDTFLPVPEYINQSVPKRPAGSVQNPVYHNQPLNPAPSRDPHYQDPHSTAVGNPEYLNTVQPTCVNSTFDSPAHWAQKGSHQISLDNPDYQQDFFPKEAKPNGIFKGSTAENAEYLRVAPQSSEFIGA
Procedure: as §1, §2

EGFR(Dell9_T790M_C797S) (aa 669-1210, in house), sequence (P00533 with tags, fused parts or gaps DEL746-750/T790M/C797S, form open): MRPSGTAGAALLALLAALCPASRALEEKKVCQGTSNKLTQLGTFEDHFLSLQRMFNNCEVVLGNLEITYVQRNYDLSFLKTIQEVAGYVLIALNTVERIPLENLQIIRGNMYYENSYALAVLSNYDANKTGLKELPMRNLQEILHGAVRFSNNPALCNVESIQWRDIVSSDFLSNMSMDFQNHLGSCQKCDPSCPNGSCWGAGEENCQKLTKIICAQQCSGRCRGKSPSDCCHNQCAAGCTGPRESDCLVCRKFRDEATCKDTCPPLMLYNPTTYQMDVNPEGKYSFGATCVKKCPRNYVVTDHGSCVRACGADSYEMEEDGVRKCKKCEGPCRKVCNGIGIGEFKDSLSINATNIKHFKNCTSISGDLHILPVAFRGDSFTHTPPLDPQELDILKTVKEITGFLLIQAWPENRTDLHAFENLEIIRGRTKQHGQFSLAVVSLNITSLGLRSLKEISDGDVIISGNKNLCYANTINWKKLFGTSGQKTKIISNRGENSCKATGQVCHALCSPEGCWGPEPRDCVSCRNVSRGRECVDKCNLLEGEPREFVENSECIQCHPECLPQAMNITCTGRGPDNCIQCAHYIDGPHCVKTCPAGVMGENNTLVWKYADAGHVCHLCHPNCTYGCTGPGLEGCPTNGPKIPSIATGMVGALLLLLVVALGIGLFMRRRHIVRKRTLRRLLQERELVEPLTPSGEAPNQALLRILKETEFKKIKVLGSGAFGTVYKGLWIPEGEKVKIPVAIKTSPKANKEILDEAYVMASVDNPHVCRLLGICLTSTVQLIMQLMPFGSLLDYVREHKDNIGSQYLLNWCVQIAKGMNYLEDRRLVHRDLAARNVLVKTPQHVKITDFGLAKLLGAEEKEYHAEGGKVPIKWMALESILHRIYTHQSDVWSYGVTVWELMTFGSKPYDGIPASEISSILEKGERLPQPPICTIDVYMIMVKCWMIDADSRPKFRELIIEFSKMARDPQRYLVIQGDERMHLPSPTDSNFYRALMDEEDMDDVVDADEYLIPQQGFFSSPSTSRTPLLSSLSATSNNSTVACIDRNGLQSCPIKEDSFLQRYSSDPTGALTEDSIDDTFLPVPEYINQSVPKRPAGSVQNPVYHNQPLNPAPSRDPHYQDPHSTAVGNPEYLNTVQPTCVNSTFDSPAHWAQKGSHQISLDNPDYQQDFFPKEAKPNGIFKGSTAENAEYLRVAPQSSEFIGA

IC50 [1]	IC50 [2]	IC50 [3]	Compound
10.6 nM	23.3 nM	241 nM	CN1CCN(c2ccc(Nc3ncc(Br)c(Nc4cccc5c4N(S(C)(=O)=O)CC5)n3)c3c2CC(C)(C)O3)CC1 [Example 56, 5-bromo-N^2-(2,2-dimethyl-4-(4-methylpiperazin-1-yl)-2,3-dihydrobenzofuran-7-yl)-N^4-(1-(methylsulfonyl)indolin-7-yl)pyrimidine-2,4-diamine]
0.7 nM	0.3 nM	0.5 nM	COc1cc(N2CCC(N3CCN(C)CC3)CC2)c(C)cc1Nc1ncc(Cl)c(Nc2cccc3c2N(S(C)(=O)=O)CC32CC2)n1 [Example 188, 5-chloro-N2-(2-methoxy-5-methyl-4-(4-(4-methylpiperazin-1-yl)piperidin-1-yl)phenyl)-N4-(1′-(methylsulfonyl)spiro[cyclopropane-1,3′-indolin]-7′-yl)pyrimidine-2,4-diamine]
0.7 nM	0.3 nM	3.2 nM	COc1cc(N2CCC3(CCN(C)CC3)CC2)c(Cl)cc1Nc1ncc(Br)c(Nc2cccc3c2N(S(C)(=O)=O)CC3)n1 [Example 44, 5-bromo-N^2-(5-chloro-2-methoxy-4-(9-methyl-3,9-diazaspiro[5.5]undecan-3-yl)phenyl)-N^4-(1-(methylsulfonyl)indolin-7-yl)pyrimidine-2,4-diamine]
0.42 nM	0.68 nM	11.6 nM	CC1Cc2c(N3CCN(C)CC3)ccc(Nc3ncc(Br)c(Nc4cccc5c4N(S(C)(=O)=O)CC5)n3)c2O1 (stereo not drawn) [Example 62, 5-bromo-N^2-(2-methyl-4-(4-methylpiperazin-1-yl)-2,3-dihydrobenzofuran-7-yl)-N^4-(1-(methylsulfonyl)indolin-7-yl)pyrimidine-2,4-diamine]
0.3 nM	0.3 nM	1.5 nM	CCN1CCN(C2CCN(c3cc(F)c(Nc4ncc(Br)c(Nc5cccc6c5N(S(C)(=O)=O)CC6)n4)cc3F)CC2)CC1 [Example 185, 5-bromo-N2-(4-(4-(4-ethylpiperazin-1-yl)piperidin-1-yl)-2,5-difluorophenyl)-N4-(1-(methylsulfonyl)indolin-7-yl)pyrimidine-2,4-diamine]
0.9 nM	0.3 nM	1.4 nM	COc1cc(N2CCC(N3CCN(C)CC3)CC2)ccc1Nc1ncc(Br)c(Nc2cccc3c2N(S(C)(=O)=O)C2(CC2)C3)n1 [Example 136, 5-bromo-N2-(2-methoxy-4-(4-(4-methylpiperazin-1-yl)piperidin-1-yl)phenyl)-N4-(1′-(methylsulfonyl)spiro[cyclopropane-1,2′-indolin]-7′-yl)pyrimidine-2,4-diamine]
1.5 nM	1.3 nM	9.3 nM	C#Cc1cnc(Nc2ccc(N3CCC(N4CCN(C)CC4)CC3)cc2OC)nc1Nc1cccc2c1N(S(C)(=O)=O)CC2 [Example 196, 5-ethynyl-N2-(2-methoxy-4-(4-(4-methylpiperazin-1-yl)piperidin-1-yl)phenyl)-N4-(1-(methylsulfonyl)indolin-7-yl)pyrimidine-2,4-diamine]
2.9 nM	1.2 nM	1.2 nM	COc1cc(N2CCC(N3CCN(C)CC3)CC2)c(C)cc1Nc1nc(N)c(Br)c(Nc2cccc3c2N(S(C)(=O)=O)CC3)n1 [Example 197, 5-bromo-N2-(2-methoxy-5-methyl-4-(4-(4-methylpiperazin-1-yl)piperidin-1-yl)phenyl)-N4-(1-(methylsulfonyl)indolin-7-yl)pyrimidine-24,6-triamine]
0.3 nM	0.3 nM	0.8 nM	COc1cc(N2CCC(N3CCN(C)CC3)CC2)ccc1Nc1ncc(Cl)c(Nc2cccc3c2N(S(C)(=O)=O)CC32CC2)n1 [Example 187, 5-chloro-N2-(2-methoxy-4-(4-(4-methylpiperazin-1-yl)piperidin-1-yl)phenyl)-N4-(1′-(methylsulfonyl)spiro[cyclopropane-1,3′-indolin]-7′-yl)pyrimidine-2,4-diamine]
0.2 nM	0.1 nM	0.9 nM	COc1cc(N2CCC(N(C)C)CC2)c(C)cc1Nc1ncc(Br)c(Nc2cccc3c2N(S(C)(=O)=O)CC3)n1 [Example 46, 5-bromo-N^2-(4-(4-(dimethylamino)piperidin-1-yl)-2-methoxy-5-methylphenyl)-N^4-(1-(methylsulfonyl)indolin-7-yl)pyrimidine-2,4-diamine]
0.35 nM	0.3 nM	0.5 nM	CN1CCN(C2CCN(c3c(F)cc(Nc4ncc(Br)c(Nc5cccc6c5N(S(C)(=O)=O)CC6)n4)c4c3CCO4)CC2)CC1 [Example 60, 5-bromo-N^2-(5-fluoro-4-(4-(4-methylpiperazin-1-yl)piperidin-1-yl)-2,3-dihydrobenzofuran-7-yl)-N^4-(1-(methylsulfonyl)indolin-7-yl)pyrimidine-2,4-diamine]

The next lines start with the molecule.

Compound	IC50 [1]	IC50 [2]	IC50 [3]
CN1CCN(C2CCN(c3ccc(Nc4nc(Nc5cccc6c5N(S(C)(=O)=O)CC6)c5cc[nH]c5n4)cc3F)CC2)CC1 [Example 79, N^2-(3-fluoro-4-(4-(4-methylpiperazin-1-yl)piperidin-1-yl)phenyl)-N^4-(1-(methylsulfonyl)indolin-7-yl)-7H-pyrrolo[2,3-d]pyrimidine-2,4-diamine]	0.29 nM	0.26 nM	14 nM
CN1CCN(C2CCN(c3ccc(Nc4nc(Nc5cccc6c5N(S(C)(=O)=O)CC6)c5cc[nH]c5n4)c4c3OCO4)CC2)CC1 [Example 182, N2-(7-(4-(4-methylpiperazin-1-yl)piperidin-1-yl)benzo[d][1,3]dioxol-4-yl)-N4-(1-(methylsulfonyl)indolin-7-yl)-7H-pyrrolo[2,3-d]pyrimidine-2,4-diamine]	1.5 nM	1.2 nM	230 nM
COc1cc(-c2cnn(CCN(C)C)c2)ccc1Nc1nc(Nc2cccc3c2N(S(C)(=O)=O)CC3)c2cc[nH]c2n1 [Example 113, N^2-(4-(1-(2-(dimethylamino)ethyl)-1H-pyrazol-4-yl)-2-methoxyphenyl)-N^4-(1-(methylsulfonyl)indolin-7-yl)-7H-pyrrolo[2,3-d]pyrimidine-2,4-diamine]	18.5 nM	16 nM	1470 nM
COc1cc(N2CCC(N3CCN(C)CC3)CC2)ccc1Nc1ncc(Br)c(Nc2cccc3c2N(S(C)(=O)=O)C(C)(C)C3)n1 [Example 134, 5-bromo-N4-(2,2-dimethyl-1-(methylsulfonyl)indolin-7-yl)-N2-(2-methoxy-4-(4-(4-methylpiperazin-1-yl)piperidin-1-yl)phenyl)pyrimidine-2,4-diamine]	0.8 nM	0.3 nM	11.5 nM
Cc1cc(Nc2nc(Nc3cccc4c3N(S(C)(=O)=O)CC4)c3cc[nH]c3n2)ccc1N1CCC(N2CCN(C)CC2)CC1 [Example 82, N^2-(3-methyl-4-(4-(4-methylpiperazin-1-yl)piperidin-1-yl)phenyl)-N^4-(1-(methylsulfonyl)indolin-7-yl)-7H-pyrrolo[2,3-d]pyrimidine-2,4-diamine]	0.85 nM	0.7 nM	39.7 nM
COc1cc(N2CCC(N3CCN(C)CC3=O)CC2)ccc1Nc1nc(Nc2cccc3c2N(S(C)(=O)=O)CC3)c2cc[nH]c2n1 [Example 191, 1-(1-(3-methoxy-4-((4-((1-(methylsulfonyl)indolin-7-yl)amino)-7H-pyrrolo[2,3-d]pyrimidin-2-yl)amino)phenyl)piperidin-4-yl)-4-methylpiperazin-2-one]	1.9 nM	0.6 nM	31.6 nM
COc1cc(N(C)CCN(C)C)ccc1Nc1nc(Nc2cccc3c2N(S(C)(=O)=O)CC3)c2cc[nH]c2n1 [Example 112, N^2-(4-((2-(dimethylamino)ethyl)(methyl)amino)-2-methoxyphenyl)-N^4-(1-(methylsulfonyl)indolin-7-yl)-7H-pyrrolo[2,3-d]pyrimidine-2,4-diamine]	14.6 nM	2.9 nM	840 nM
COc1cc(N2CCC(N3CCN(C)C(=O)C3)CC2)ccc1Nc1nc(Nc2cccc3c2N(S(C)(=O)=O)CC3)c2cc[nH]c2n1 [Example 186, 4-(1-(3-methoxy-4-((4-((1-(methylsulfonyl)indolin-7-yl)amino)-7H-pyrrolo[2,3-d]pyrimidin-2-yl)amino)phenyl)piperidin-4-yl)-1-methylpiperazin-2-one]	4.9 nM	1.5 nM	140 nM
